Values quoted from earlier work, collected in patent publication US5541094A, “Glyoxylic acid/aminomethylphosphonic acid mixtures prepared using a microbial transformant” (E. I. du Pont de Nemours and Company, priority 1994, dated 1996).

Test system: glycolate oxidase
Conditions: 100 mM; enzyme extracted from tobacco leaves

O=C(O)C(=O)O [Oxalic acid]
inhibition of the catalytic action of the glycolate oxidase: inhibit the catalytic action of the glycolate oxidase
